Results reported in ChEMBL document CHEMBL4024706 (Eur J Med Chem, 2017).

Columns and labels:
[1] = molecular target: Insulin receptor (Homo sapiens) (UniProt P06213); assay: Inhibition of wild-type human partial length INSR (P997 to E1318 residues) expressed in mammalian expression system assessed as residual activity at 1 uM by Kinomescan method relative to control
[2] = molecular target: Bone morphogenetic protein receptor type-1B (Homo sapiens) (UniProt O00238); assay: Inhibition of wild-type human partial length BMPR1B (D178 to L502 residues) expressed in mammalian expression system assessed as residual activity at 1 uM by Kinomescan method relative to control
[3] = molecular target: Serine/threonine-protein kinase 38-like (Homo sapiens) (UniProt Q9Y2H1); assay: Inhibition of wild-type human partial length NDR2 (N34 to E447 residues) expressed in bacterial expression system assessed as residual activity at 1 uM by Kinomescan method relative to control
[4] = molecular target: Receptor-type tyrosine-protein kinase FLT3 (Homo sapiens) (UniProt P36888); assay: Inhibition of wild-type human partial length FLT3 (V592 to Y969 residues) expressed in bacterial expression system assessed as residual activity at 1 uM by Kinomescan method relative to control
[5] = molecular target: Rhodopsin kinase GRK1 (Homo sapiens) (UniProt Q15835); assay: Inhibition of wild-type human full length GRK1 (M1 to S563 residues) expressed in mammalian expression system assessed as residual activity at 1 uM by Kinomescan method relative to control
[6] = molecular target: Mitogen-activated protein kinase kinase kinase 4 (Homo sapiens) (UniProt Q9Y6R4); assay: Inhibition of wild-type human partial length MAP3K4 (G1319 to E1608 residues) expressed in bacterial expression system assessed as residual activity at 1 uM by Kinomescan method relative to control
[7] = molecular target: Cyclin-dependent kinase-like 1 (Homo sapiens) (UniProt Q00532); assay: Inhibition of wild-type human full length CDKL1 (M1 to I358 residues) expressed in mammalian expression system assessed as residual activity at 1 uM by Kinomescan method relative to control
[8] = molecular target: Serine/threonine-protein kinase BRSK1 (Homo sapiens) (UniProt Q8TDC3); assay: Inhibition of wild-type human partial length BRSK1 (M1 to E754 residues) expressed in bacterial expression system assessed as residual activity at 1 uM by Kinomescan method relative to control
[9] = system: Tyrosine-protein kinase ABL1 (Homo sapiens), P00519 [F317L]; assay: Inhibition of human non-phosphorylated ABL1 F317L mutant (S229 to K512 residues) expressed in mammalian expression system assessed as residual activity at 1 uM by Kinomescan method relative to control
[10] = system: Receptor-type tyrosine-protein kinase FLT3 (Homo sapiens), P36888 [D835Y]; assay: Inhibition of human partial length FLT3 D835Y mutant (Q580 to Y969 residues) expressed in bacterial expression system assessed as residual activity at 1 uM by Kinomescan method relative to control
[11] = molecular target: 5'-AMP-activated protein kinase catalytic subunit alpha-2 (Homo sapiens) (UniProt P54646); assay: Inhibition of wild-type human partial length AMPK alpha2 (M1 to E306 residues) expressed in bacterial expression system assessed as residual activity at 1 uM by Kinomescan method relative to control
[12] = system: Epidermal growth factor receptor (Homo sapiens), P00533 [UNDEFINED MUTATION]; assay: Inhibition of human partial length EGFR E746-A750del mutant expressed in bacterial expression system assessed as residual activity at 1 uM by Kinomescan method relative to control
[13] = molecular target: SNF-related serine/threonine-protein kinase (Homo sapiens) (UniProt Q9NRH2); assay: Inhibition of wild-type human partial length SNRK (M1 to E339 residues) expressed in mammalian expression system assessed as residual activity at 1 uM by Kinomescan method relative to control
[14] = molecular target: Serine/threonine-protein kinase STK11 (Homo sapiens) (UniProt Q15831); assay: Inhibition of wild-type human full length LKB1 (M1 to Q433 residues) expressed in bacterial expression system assessed as residual activity at 1 uM by Kinomescan method relative to control
[15] = molecular target: Cyclin-dependent kinase 9 (Homo sapiens) (UniProt P50750); assay: Inhibition of wild-type human full length CDK9 (M1 to F372 residues) expressed in bacterial expression system assessed as residual activity at 1 uM by Kinomescan method relative to control
[16] = molecular target: Serine/threonine-protein kinase Nek1 (Homo sapiens) (UniProt Q96PY6); assay: Inhibition of wild-type human partial length NEK1 (M1 to K278 residues) expressed in bacterial expression system assessed as residual activity at 1 uM by Kinomescan method relative to control
[17] = molecular target: Cyclin-dependent kinase 17 (Homo sapiens) (UniProt Q00537); assay: Inhibition of wild-type human full length PCTK2 (M1 to F523 residues) expressed in bacterial expression system assessed as residual activity at 1 uM by Kinomescan method relative to control
[18] = molecular target: Activin receptor type-2A (Homo sapiens) (UniProt P27037); assay: Inhibition of wild-type human ACVR2A (V171 to T499 residues) expressed in bacterial expression system assessed as residual activity at 1 uM by Kinomescan method relative to control
[19] = molecular target: Serine/threonine-protein kinase Sgk1 (Homo sapiens) (UniProt O00141); assay: Inhibition of wild-type human partial length SGK (I60 to L431 residues) expressed in mammalian expression system assessed as residual activity at 1 uM by Kinomescan method relative to control
[20] = molecular target: Membrane-associated tyrosine- and threonine-specific cdc2-inhibitory kinase (Homo sapiens) (UniProt Q99640); assay: Inhibition of wild-type human partial length PKMYT1 (A88 to G366 residues) expressed in bacterial expression system assessed as residual activity at 1 uM by Kinomescan method relative to control
[21] = molecular target: Serine/threonine-protein kinase Nek5 (Homo sapiens) (UniProt Q6P3R8); assay: Inhibition of wild-type human partial length NEK5 (M1 to M279 residues) expressed in bacterial expression system assessed as residual activity at 1 uM by Kinomescan method relative to control
[22] = molecular target: Protein kinase C epsilon type (Homo sapiens) (UniProt Q02156); assay: Inhibition of wild-type human partial length PRKCE (A378 to P737 residues) expressed in mammalian expression system assessed as residual activity at 1 uM by Kinomescan method relative to control
[23] = molecular target: Proto-oncogene tyrosine-protein kinase Src (Homo sapiens) (UniProt P12931); assay: Inhibition of wild-type human partial length SRC (L240 to L536 residues) expressed in bacterial expression system assessed as residual activity at 1 uM by Kinomescan method relative to control
[24] = molecular target: Microtubule-associated serine/threonine-protein kinase 1 (Homo sapiens) (UniProt Q9Y2H9); assay: Inhibition of wild-type human partial length MAST1 (S346 to V730 residues) expressed in mammalian expression system assessed as residual activity at 1 uM by Kinomescan method relative to control
[25] = molecular target: Serine/threonine-protein kinase RIO1 (Homo sapiens) (UniProt Q9BRS2); assay: Inhibition of wild-type human full length RIOK1 (M1 to K568 residues) expressed in bacterial expression system assessed as residual activity at 1 uM by Kinomescan method relative to control

Sequence of Cyclin-dependent kinase-like 1 (Homo sapiens) (Q00532 whole entry, the tested form may be a part): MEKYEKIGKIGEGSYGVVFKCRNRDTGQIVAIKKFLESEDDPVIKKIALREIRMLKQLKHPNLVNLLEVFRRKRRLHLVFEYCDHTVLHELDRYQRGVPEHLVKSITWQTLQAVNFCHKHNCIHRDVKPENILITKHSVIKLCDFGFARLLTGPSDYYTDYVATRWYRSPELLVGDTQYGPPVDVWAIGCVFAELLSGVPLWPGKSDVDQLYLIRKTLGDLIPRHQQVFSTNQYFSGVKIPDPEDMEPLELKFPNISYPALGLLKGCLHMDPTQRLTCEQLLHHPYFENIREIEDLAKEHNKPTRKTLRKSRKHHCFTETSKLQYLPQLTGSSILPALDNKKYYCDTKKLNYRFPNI
Sequence of Activin receptor type-2A (Homo sapiens) (P27037 whole entry, the tested form may be a part): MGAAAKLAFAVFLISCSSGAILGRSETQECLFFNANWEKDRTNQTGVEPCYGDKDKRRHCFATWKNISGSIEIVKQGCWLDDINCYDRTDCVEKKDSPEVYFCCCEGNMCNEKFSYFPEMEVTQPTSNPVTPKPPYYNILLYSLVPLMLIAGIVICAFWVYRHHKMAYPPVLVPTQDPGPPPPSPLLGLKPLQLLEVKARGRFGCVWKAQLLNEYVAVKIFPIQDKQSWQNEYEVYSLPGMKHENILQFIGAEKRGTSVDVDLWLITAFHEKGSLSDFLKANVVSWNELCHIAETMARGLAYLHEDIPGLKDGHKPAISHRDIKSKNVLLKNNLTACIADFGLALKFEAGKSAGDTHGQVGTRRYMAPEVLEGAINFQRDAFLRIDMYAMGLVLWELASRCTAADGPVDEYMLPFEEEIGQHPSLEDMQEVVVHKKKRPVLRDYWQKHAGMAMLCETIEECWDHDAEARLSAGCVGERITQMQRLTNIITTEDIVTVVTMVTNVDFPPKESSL
Sequence of Cyclin-dependent kinase 17 (Homo sapiens) (Q00537 whole entry, looked up, the tested form may be a part): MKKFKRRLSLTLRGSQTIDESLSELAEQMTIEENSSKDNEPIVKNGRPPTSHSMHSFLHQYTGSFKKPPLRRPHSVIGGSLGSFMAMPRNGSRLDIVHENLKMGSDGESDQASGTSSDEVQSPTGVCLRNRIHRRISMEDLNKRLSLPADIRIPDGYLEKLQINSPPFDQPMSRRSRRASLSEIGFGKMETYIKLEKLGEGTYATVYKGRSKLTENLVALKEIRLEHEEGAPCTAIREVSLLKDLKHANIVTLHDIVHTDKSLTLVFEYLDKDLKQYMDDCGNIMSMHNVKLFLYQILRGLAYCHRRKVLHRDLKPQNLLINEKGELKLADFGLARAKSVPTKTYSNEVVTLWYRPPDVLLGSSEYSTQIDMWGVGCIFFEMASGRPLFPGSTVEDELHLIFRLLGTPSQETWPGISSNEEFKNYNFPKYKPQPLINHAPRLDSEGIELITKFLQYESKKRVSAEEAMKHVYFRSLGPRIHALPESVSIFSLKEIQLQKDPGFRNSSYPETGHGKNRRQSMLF
Sequence of Rhodopsin kinase GRK1 (Homo sapiens) (Q15835 whole entry, the tested form may be a part): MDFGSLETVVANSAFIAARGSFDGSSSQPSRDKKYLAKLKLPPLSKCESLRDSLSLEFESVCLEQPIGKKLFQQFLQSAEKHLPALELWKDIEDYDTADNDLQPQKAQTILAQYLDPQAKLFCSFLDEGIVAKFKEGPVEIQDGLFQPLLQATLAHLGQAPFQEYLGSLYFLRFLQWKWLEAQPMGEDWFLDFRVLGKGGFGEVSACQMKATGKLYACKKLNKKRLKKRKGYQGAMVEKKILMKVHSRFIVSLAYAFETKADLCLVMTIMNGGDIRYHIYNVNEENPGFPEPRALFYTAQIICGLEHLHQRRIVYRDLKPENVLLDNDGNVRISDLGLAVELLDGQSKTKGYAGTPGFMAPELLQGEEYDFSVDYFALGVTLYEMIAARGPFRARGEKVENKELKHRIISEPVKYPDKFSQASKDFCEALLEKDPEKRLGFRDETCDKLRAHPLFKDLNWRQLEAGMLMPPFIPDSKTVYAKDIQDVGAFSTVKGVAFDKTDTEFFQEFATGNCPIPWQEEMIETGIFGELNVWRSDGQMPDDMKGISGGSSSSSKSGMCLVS
Sequence of Mitogen-activated protein kinase kinase kinase 4 (Homo sapiens) (Q9Y6R4 whole entry, the tested form may be a part): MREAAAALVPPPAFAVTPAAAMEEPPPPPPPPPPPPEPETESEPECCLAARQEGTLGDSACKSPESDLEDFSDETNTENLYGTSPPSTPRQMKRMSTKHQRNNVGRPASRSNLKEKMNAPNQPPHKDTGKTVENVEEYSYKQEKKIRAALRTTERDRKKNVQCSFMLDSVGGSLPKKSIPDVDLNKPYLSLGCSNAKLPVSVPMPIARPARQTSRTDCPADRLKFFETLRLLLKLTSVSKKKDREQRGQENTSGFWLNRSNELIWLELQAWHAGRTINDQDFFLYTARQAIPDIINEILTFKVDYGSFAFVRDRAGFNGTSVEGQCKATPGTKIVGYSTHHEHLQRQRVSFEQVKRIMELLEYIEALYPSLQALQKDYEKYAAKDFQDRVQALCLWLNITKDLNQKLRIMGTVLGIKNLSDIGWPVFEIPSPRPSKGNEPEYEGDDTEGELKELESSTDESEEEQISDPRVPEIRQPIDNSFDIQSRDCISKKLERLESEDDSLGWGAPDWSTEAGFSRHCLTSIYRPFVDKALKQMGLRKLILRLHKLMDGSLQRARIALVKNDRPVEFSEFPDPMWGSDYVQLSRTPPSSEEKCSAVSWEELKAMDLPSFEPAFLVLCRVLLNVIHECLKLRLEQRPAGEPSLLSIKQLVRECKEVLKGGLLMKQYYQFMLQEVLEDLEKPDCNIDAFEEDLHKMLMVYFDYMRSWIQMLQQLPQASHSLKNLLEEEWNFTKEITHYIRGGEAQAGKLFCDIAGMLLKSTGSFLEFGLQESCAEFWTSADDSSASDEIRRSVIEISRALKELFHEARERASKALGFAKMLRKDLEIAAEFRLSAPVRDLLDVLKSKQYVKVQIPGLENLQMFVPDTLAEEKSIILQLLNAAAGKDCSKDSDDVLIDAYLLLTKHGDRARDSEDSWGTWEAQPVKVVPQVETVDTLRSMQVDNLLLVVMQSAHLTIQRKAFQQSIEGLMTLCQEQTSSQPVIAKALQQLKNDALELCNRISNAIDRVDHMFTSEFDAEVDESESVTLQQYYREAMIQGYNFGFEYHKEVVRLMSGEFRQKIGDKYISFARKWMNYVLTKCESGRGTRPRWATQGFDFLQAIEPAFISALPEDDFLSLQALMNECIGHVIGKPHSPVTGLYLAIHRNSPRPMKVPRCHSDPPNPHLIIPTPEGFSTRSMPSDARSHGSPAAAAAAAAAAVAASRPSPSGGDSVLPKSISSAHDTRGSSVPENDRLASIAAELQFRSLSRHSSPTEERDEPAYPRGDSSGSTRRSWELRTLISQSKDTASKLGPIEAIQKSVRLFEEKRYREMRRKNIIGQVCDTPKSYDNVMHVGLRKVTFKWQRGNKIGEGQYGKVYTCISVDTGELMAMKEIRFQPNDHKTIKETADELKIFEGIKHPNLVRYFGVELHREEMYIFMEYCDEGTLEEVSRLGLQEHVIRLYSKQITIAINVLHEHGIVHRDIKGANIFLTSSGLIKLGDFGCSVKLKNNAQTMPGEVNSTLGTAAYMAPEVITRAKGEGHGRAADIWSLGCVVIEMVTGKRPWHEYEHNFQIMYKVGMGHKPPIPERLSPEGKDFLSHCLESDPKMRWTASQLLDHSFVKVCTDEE
Sequence of 5'-AMP-activated protein kinase catalytic subunit alpha-2 (Homo sapiens) (P54646 whole entry, looked up, the tested form may be a part): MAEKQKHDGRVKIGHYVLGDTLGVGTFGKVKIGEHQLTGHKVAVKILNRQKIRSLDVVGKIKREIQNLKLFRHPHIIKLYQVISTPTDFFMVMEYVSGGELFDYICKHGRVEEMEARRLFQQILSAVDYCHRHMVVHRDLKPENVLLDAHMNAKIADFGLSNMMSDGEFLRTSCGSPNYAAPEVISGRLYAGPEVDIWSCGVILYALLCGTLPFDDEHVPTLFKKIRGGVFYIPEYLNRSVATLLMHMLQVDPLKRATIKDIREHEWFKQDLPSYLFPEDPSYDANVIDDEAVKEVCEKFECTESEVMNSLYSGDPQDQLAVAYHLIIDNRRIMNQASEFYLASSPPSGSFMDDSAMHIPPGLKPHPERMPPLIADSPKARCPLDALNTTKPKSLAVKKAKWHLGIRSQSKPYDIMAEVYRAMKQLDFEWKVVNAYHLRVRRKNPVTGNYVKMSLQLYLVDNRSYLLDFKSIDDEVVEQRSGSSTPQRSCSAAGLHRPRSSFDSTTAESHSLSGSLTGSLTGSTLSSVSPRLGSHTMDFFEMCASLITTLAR
Sequence of Cyclin-dependent kinase 9 (Homo sapiens) (P50750 whole entry, the tested form may be a part): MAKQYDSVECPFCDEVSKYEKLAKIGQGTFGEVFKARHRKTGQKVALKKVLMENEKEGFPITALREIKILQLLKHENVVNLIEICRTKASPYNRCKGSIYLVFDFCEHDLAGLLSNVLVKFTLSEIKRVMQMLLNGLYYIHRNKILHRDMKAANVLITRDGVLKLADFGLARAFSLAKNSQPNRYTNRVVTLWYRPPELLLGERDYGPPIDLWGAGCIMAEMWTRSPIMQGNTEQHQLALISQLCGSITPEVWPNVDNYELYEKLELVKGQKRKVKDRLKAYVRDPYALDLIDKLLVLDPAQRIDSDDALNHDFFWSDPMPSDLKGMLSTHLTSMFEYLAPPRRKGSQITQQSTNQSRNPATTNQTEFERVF
Sequence of Serine/threonine-protein kinase STK11 (Homo sapiens) (Q15831 whole entry, the tested form may be a part): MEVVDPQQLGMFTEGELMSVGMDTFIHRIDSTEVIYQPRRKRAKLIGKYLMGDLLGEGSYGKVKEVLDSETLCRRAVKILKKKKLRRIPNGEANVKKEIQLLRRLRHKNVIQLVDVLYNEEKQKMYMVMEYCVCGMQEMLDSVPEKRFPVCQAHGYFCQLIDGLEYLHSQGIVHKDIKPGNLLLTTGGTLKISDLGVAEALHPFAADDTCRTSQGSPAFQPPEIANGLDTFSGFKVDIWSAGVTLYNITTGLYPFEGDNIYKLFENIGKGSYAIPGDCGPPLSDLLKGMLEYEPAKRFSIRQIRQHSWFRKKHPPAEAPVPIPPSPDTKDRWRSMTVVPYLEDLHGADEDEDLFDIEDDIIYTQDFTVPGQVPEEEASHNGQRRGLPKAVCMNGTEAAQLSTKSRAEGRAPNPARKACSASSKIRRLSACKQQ

Compound: C=CC(=O)Nc1cc(Nc2cc(-c3cccc(NC(=O)c4ccc(C(C)(C)C)cc4)c3C)cn(C)c2=O)ccc1C(=O)N1CCOCC1
- Activity [1]: 100%
- Activity [2]: 100%
- Activity [3]: 100%
- Activity [4]: 94%
- Activity [5]: 100%
- Activity [6]: 89%
- Activity [7]: 100%
- Activity [8]: 100%
- Activity [9]: 88%
- Activity [10]: 97%
- Activity [11]: 92%
- Activity [12]: 80%
- Activity [13]: 80%
- Activity [14]: 98%
- Activity [15]: 99%
- Activity [16]: 100%
- Activity [17]: 100%
- Activity [18]: 90%
- Activity [19]: 95%
- Activity [20]: 91%
- Activity [21]: 100%
- Activity [22]: 96%
- Activity [23]: 99%
- Activity [24]: 98%
- Activity [25]: 100%
